Test results: patent US8552057B2, “Phytoestrogenic formulations for alleviation or prevention of neurodegenerative diseases” (priority 2006, dated 2013)
Read-outs that look alike come from different tables or passages of the source.

Legend:
human ERα = human ERα (Homo sapiens (Human), UniProt P03372); experiment: Fluorescence polarization competitive binding assay, ERα; conditions: for ERα RBA (%): percent of the binding affinity of 17β-estradiol (RBA = 100%)
human ERβ = human ERβ (Homo sapiens (Human), UniProt Q92731); experiment: Fluorescence polarization competitive binding assay, ERβ; conditions: for ERβ RBA (%): percent of the binding affinity of 17β-estradiol (RBA = 100%)
[1] = tested on: primary hippocampal neurons; experiment: Glutamate-induced neurotoxicity, LDH release; conditions: for LDH Release (% of Control): 48 h pretreatment, 5-min glutamate, LDH 24 h later; for concentration that elicited the maximal neuroprotective effects: from the dose-response analyses, administered alone
[2] = tested on: adult ovariectomized rats; experiment: Uterine weight in adult ovariectomized rats; conditions: 6 mg/kg BW
[3] = tested on: adult ovariectomized rats; conditions: rat, in vivo
[4] = 2 subcutaneous injections once daily, 24 h after 2nd injection
[5] = compared with vehicle-treated control (set as 0)

| Compound | LDH Release (% of Control) ([1]; 1 nM) | LDH Release (% of Control) ([1]; 10 nM) | LDH Release (% of Control) ([1]; 100 nM) | LDH Release (% of Control) ([1]; 1 μM) | LDH Release (% of Control) ([1]; 10 μM) | concentration that elicited the maximal neuroprotective effects [1] [nM] | also measured |
| --- | --- | --- | --- | --- | --- | --- | --- |
| CC(=O)[C@H]1CC[C@H]2[C@@H]3CCC4=CC(=O)CC[C@]4(C)[C@H]3CC[C@]12C [Progesteron, progesterone, reference compound] | – | – | – | – | – | – | binding to ERα (human ERα): does not bind; binding to ERβ (human ERβ): does not bind |
| O=c1c(-c2ccc(O)cc2)coc2cc(O)ccc12 [Daidzein, daidzein] | 338.39 ± 16.49 % of Control | 333.98 ± 9.10 % of Control | 301.42 ± 7.70 % of Control | 318.49 ± 15.92 % of Control | 325.41 ± 26.12 % of Control | 100 | ERα RBA (%) (human ERα): 0.0949%; ERβ RBA (%) (human ERβ): 1.867% |
| O=c1c(-c2ccc(O)cc2)coc2cc(O)cc(O)c12 [genistein] | 361.03 ± 7.71 % of Control | 350.02 ± 8.21 % of Control | 347.24 ± 16.96 % of Control | 356.79 ± 11.15 % of Control | 377.84 ± 8.45 % of Control | 100 | Uterine Dry Weight [2, 4]: 28.14 ± 2.04 mg; Uterine Wet Weight [2, 4]: 144.11 ± 10.18 mg; Uterine Dry Weight Increase (%) [2, 5]: 6.49 ± 7.71%; Uterine Wet Weight Increase (%) [2, 5]: 12.92 ± 7.97% |
| O=c1nc2n(c3cc4ccccc4cc13)Cc1ccccc1-2 [Compd 12] | – | – | – | – | – | – | binding to ERβ (human ERβ): either very weak or no binding |
| C[C@]12CC[C@@H]3c4ccc(O)cc4CC[C@H]3[C@@H]1CC[C@@H]2O [17β-Estradiol] | – | – | – | – | – | – | impact on uterine weight [3]: markedly increased |
| O=C1Oc2cc(O)cc(Cc3ccccc3)c2CC1c1ccc(Cl)cc1 (stereo not shown) [Compd 3] | – | – | – | – | – | – | IC50 (human ERβ; Table 1, read-out: IC50 ERβ): 250 nM |
| Oc1ccc([C@H]2COc3cc(O)ccc3C2)cc1 [Equol, equol] | 453.50 ± 23.37 % of Control | 403.78 ± 17.02 % of Control | 331.59 ± 9.67 % of Control | 381.80 ± 12.01 % of Control | 390.21 ± 9.40 % of Control | 100 | IC50 (human ERα): 5880 nM; ERα RBA (%) (human ERα): 0.4306%; Selectivity (β/α) (human ERβ; Table 2): 10.09; IC50 (human ERβ; Table 2, full-length human ERβ, read-out: ERβ IC50): 582 nM; ERβ RBA (%) (human ERβ): 5.571% |
